Where “and” joins values, the source holds several entries; their conditions need not be identical. Equal entries are not always repeated. Where two headings read alike, the source gives them in different places. One block for each compound: values may come before it.
Assays:
[1] = target: T1, recombinant human Aggrecanase-2 Agg2-Phe628 (Homo sapiens, UniProt Q9UNA0); assay: Aggrecanase 2 in vitro enzyme assay (Agg-2 FRET, quenched fluorescent peptide substrate); assay type: biochemical; set-up: purified recombinant human Aggrecanase-2 Agg2-Phe628 (MW=41,737); This is a truncated form of full-length human aggrecanase-2; made in house; host or cells: CHO cells; conditions: for Agg-2 FRET Median PCT INHIB: concentration not given
T1 sequence (Q9UNA0 262-628 limits assumed): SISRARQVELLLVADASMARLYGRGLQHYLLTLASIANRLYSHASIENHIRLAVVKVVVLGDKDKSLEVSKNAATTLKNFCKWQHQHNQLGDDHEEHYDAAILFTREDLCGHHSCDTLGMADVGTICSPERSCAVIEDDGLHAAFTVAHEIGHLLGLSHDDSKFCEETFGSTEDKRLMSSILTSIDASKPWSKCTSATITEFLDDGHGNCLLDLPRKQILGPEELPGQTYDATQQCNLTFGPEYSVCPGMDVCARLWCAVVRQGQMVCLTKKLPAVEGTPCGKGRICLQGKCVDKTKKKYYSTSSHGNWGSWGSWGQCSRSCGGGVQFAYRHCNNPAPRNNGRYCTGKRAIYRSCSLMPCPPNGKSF
In short: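 Continuous FRET assay with purified truncated human Aggrecanase-2 Agg2-Phe628 (CHO-expressed, 0.5 μg/ml final) and brevican-derived Abz/Dnp peptide (25 μM final) in 50 mM HEPES pH 7.5, 100 mM NaCl, 5 mM CaCl2, 0.1% CHAPS, 5% glycerol. Enzyme preincubated with compound before substrate; fluorescence (ex 340/em 420 nm) followed kinetically 40 min at 30 °C.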

[2] = target: T1, recombinant human Aggrecanase-2 Agg2-Phe628; assay: Aggrecanase 2 enzyme fluorescence polarization assay; assay type: binding; set-up: recombinant human Aggrecanase-2, Agg2-Phe628 (41737 Da); This is a truncated form of full-length human aggrecanase-2; made in house
Excerpt: The fluorescence polarization assay is used to determine the dissociation constant of the enzyme:inhibitor complex (Ki) and the binding interaction mode (competitive, non-competitive or uncompetitive) of reversible inhibitors. The fluorescence polarization assay monitors the rotational motion of the fluorescent ligand. In the free state the fluorescent ligand has high rotational motion corresponding to a low polarization value and when fully bound to the protein, the fluorescent ligand has a lower rotational motion, corresponding to a higher polarization value. […]
Stock solutions of the fluorescent ligand are prepared in 100% DMSO and aliquots are stored at −80° C. The stock concentration was determined by a NMR ratio method, comparing the area under the control compound peak (TSP; trimethyl silyl proprionate sodium salt) to the area under a well-defined sample peak.
To determine the dissociation constant between Aggrecanase-2 and Compound C, saturation experiments were performed by adding various concentrations of aggrecanase to a constant concentration of Compound C (2 nM), in the assay buffer 50 mM HEPES-NaOH (pH 7.4), 100 mM NaCl, 5 mM CaCl2, 0.005% Brij-35. Anisotropy values were calculated and converted to fraction bound values as described in the data analysis section below. […] The equilibrium dissociation constant was determined to be 60+/−2.9 nM. […]

Agg-1 = target: T2, Agg-1 (Homo sapiens, UniProt O75173); assay: Agg-1 FRET assay; assay type: biochemical; conditions: for inhibition at 22.2 µM: @ 22200 nM
T2 sequence (O75173 213-837): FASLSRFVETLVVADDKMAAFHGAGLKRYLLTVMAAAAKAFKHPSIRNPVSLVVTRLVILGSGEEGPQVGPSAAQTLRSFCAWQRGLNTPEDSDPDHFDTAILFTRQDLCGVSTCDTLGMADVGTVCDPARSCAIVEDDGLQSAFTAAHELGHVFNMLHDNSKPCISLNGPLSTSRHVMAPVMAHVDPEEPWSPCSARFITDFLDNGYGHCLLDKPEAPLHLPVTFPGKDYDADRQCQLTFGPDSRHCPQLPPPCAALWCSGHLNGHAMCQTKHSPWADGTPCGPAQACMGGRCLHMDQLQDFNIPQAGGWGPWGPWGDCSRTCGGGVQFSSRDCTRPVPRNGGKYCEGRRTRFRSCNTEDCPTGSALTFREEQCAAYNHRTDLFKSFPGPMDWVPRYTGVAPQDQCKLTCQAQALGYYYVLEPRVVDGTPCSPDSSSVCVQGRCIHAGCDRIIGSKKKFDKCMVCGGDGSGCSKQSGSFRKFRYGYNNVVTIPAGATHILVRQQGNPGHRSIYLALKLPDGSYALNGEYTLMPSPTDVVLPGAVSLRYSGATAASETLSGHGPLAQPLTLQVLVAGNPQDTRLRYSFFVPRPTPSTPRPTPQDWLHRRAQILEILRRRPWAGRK
Excerpt: The Agg-1/Agg-2 FRET data for N-[(8-hydroxyquinolin-2-yl)(phenyl)methyl]-2-phenoxyacetamide and 2-{[(phenoxyacetyl)amino](phenyl)methyl}quinolin-8-yl phenoxyacetate is presented in Table 1.

[3] = read-out: Agg-2 FRET Median IC50

Compound: CN([C@H](CCCCNC(=O)OC(C)(C)C)C(=O)NO)S(=O)(=O)c1ccc(OCc2ccccc2)cc1 [Compound B, reference compound]
IC50 ([1]; established value of positive control, read-out: IC50 for rAgg-2): 0.037 µM | Ki ([2]; established value of positive control, read-out: Ki for rAgg-2): 39 nM

Compound: CN([C@H](CCCCCNC(=O)c1ccc(-c2c3cc(F)c(=O)cc-3oc3cc(O)c(F)cc23)c(C(=O)O)c1)C(=O)NO)S(=O)(=O)c1ccc(OCc2ccccc2)cc1 [Compound C]
Kd ([2]; saturation experiment, 2 nM ligand, read-out: equilibrium dissociation constant between Aggrecanase-2 and fluorescent ligand): 60 nM

Compound: O=C(COc1ccccc1)N[C@@H](c1ccccc1Cl)c1cc(Cl)c2cccnc2c1O [N-[(R)-(5-chloro-8-hydroxyquinolin-7-yl)(2-chlorophenyl)methyl]-2-phenoxyacetamide]
IC50 ([1]; read-out: Agg2 IC50): 0.97 µM | IC50 [1, 3]: 0.97 µM and 1.22 µM | inhibition at 22.2 µM (Agg-1; read-out: Agg1 %): 49%

Compound: CN(C)c1cc(C(NC(=O)COc2ccccc2)c2ccccc2)c(O)c2ncccc12 (stereo not shown) [N-[[5-(dimethylamino)-8-hydroxyquinolin-7-yl](phenyl)methyl]-2-phenoxyacetamide]
Agg-2 FRET Median PCT INHIB [1]: 58% | IC50 ([1]; read-out: Agg2 IC50): 33.3 to 100 µM | IC50 (Agg-1; read-out: Agg1 IC50): ~25 µM

Compound: O=C(COc1ccccc1)NC(c1ccccc1)c1cc(-n2cccc2)c2cccnc2c1O (stereo not shown) [N-[[8-hydroxy-5-(1H-pyrrol-1-yl)quinolin-7-yl](phenyl)methyl]-2-phenoxyacetamide]
IC50 ([1]; read-out: Agg2 IC50): 1.64 µM | IC50 [1, 3]: 1.64 µM | inhibition at 200 µM (Agg-1; @ 200000 nM, read-out: Agg1 %): 54%

Compound: O=C(NC(c1ccc2c(c1)OCO2)c1cc(Cl)c2cccnc2c1O)OCc1ccccc1 (stereo not shown) [benzyl [1,3-benzodioxol-5-yl(5-chloro-8-hydroxyquinolin-7-yl)methyl]carbamate]
IC50 ([1]; read-out: Agg2 IC50): 1.56 µM | IC50 [1, 3]: 1.56 µM | IC50 (Agg-1; read-out: Agg1 IC50): > 3 µM

Compound: O=C(NC(Cc1ccccc1)c1cc(Cl)c2cccnc2c1O)OCc1ccccc1 (stereo not shown) [benzyl [1-(5-chloro-8-hydroxyquinolin-7-yl)-2-phenylethyl]carbamate]
IC50 ([1]; read-out: Agg2 IC50): > 28 µM | IC50 (Agg-1; read-out: Agg1 IC50): > 67 µM

Compound: O=C(NC(c1ccccc1Cl)c1cc(Cl)c2cccnc2c1O)OCc1ccccc1 (stereo not shown) [benzyl [(5-chloro-8-hydroxyquinolin-7-yl)(2-chlorophenyl)methyl]carbamate]
Agg-2 FRET Median PCT INHIB [1]: 56% | IC50 ([1]; read-out: Agg2 IC50): ~2.5 µM | IC50 (Agg-1; read-out: Agg1 IC50): > 67 µM

Compound: O=C(NC(c1ccco1)c1cc(Cl)c2cccnc2c1O)OCc1ccccc1 (stereo not shown) [benzyl [(5-chloro-8-hydroxyquinolin-7-yl)(2-furyl)methyl]carbamate]
Agg-2 FRET Median PCT INHIB [1]: 33% | IC50 ([1]; read-out: Agg2 IC50): > 20 µM | IC50 (Agg-1; read-out: Agg1 IC50): > 20 µM

Compound: O=C(NC(c1ccccc1)c1cc(Cl)c2cccnc2c1O)OCc1ccccc1 (stereo not shown) [benzyl [(5-chloro-8-hydroxyquinolin-7-yl)(phenyl)methyl]carbamate]
Agg-2 FRET Median PCT INHIB [1]: 46% | IC50 ([1]; read-out: Agg2 IC50): > 67 µM | IC50 (Agg-1; read-out: Agg1 IC50): > 100 µM

Compound: O=C(NC(Cc1cc(Cl)c2cccnc2c1O)c1cccc(CN2CCCC2)c1)c1ccc(-c2ccccc2)cc1 (stereo not shown) [drawing 58]
IC50 ([1]; IC50, read-out: Agg-2 IC50 (μM) or % Inhibition): 3.4 µM | IC50 (Agg-1; IC50, read-out: Agg-1 IC50 (μM) or % Inhibition): 5.9 µM

Compound: O=C(NC(Cc1cc(Cl)c2cccnc2c1O)c1cccc(CN2CCCC2)c1)c1ccc(-c2ccccc2)cc1 (stereo not shown) [drawing 65]
inhibition at 50 µM ([1]; read-out: Agg-2 IC50 (μM) or % Inhibition): 50% | inhibition at 200 µM (Agg-1; read-out: Agg-1 IC50 (μM) or % Inhibition): 54%

Further lines, results first:

IC50 ([1]; read-out: Agg2 IC50): 0.876 µM | IC50 [1, 3]: 0.876 µM and 1.34 µM | inhibition at 22.2 µM (Agg-1; read-out: Agg1 %): 54%
Compound: O=C(COc1ccccc1)N[C@H](c1ccccc1Cl)c1cc(Cl)c2cccnc2c1O [N-[(S)-(5-chloro-8-hydroxyquinolin-7-yl)(2-chlorophenyl)methyl]-2-phenoxyacetamide]

IC50 ([1]; read-out: Agg2 IC50): 1.04 µM | inhibition at 7.5 µM (Agg-1; @ 7500 nM, read-out: Agg1 %): 54%
Compound: COc1ccc(C(NC(=O)COc2ccccc2)c2cc(Cl)c3cccnc3c2O)cc1OCc1ccccc1 (stereo not shown) [N-[[3-(benzyloxy)-4-methoxyphenyl](5-chloro-8-hydroxyquinolin-7-yl)methyl]-2-phenoxyacetamide]

inhibition at […] ([1]; @ 1200 nM): 47% | inhibition at […] (Agg-1; @ 1200 nM, read-out: Agg1 %): 36%
Compound: COc1ccc(C(NC(=O)Cc2ccccc2)c2cc(Cl)c3cccnc3c2O)cc1OCc1ccccc1 (stereo not shown) [N-[[3-(benzyloxy)-4-methoxyphenyl](5-chloro-8-hydroxyquinolin-7-yl)methyl]-2-phenylacetamide]

inhibition at 3.7 µM ([1]; @ 3700 nM): 48% | inhibition at 22.2 µM (Agg-1; read-out: Agg1 %): 47%
Compound: O=C(COc1ccccc1)NC(c1cccc(OCc2ccccc2)c1)c1cc(Cl)c2cccnc2c1O (stereo not shown) [N-[[3-(benzyloxy)phenyl](5-chloro-8-hydroxyquinolin-7-yl)methyl]-2-phenoxyacetamide]

IC50 ([1]; read-out: Agg2 IC50): 4.4 µM | IC50 (Agg-1; read-out: Agg1 IC50): > 67 µM
Compound: O=C(COc1ccccc1)NC(c1ccc(OCc2ccccc2)cc1)c1cc(Cl)c2cccnc2c1O (stereo not shown) [N-[[4-(benzyloxy)phenyl](5-chloro-8-hydroxyquinolin-7-yl)methyl]-2-phenoxyacetamide]

IC50 ([1]; read-out: Agg2 IC50): 5.4 µM | IC50 (Agg-1; read-out: Agg1 IC50): > 200 µM
Compound: O=C(COc1ccccc1)NC(c1ccc(-c2ccccc2)cc1)c1cc(Cl)c2cccnc2c1O (stereo not shown) [N-[biphenyl-4-yl(5-chloro-8-hydroxyquinolin-7-yl)methyl]-2-phenoxyacetamide]
